Columns and labels:
Assay type in all cases: binding
Conditions in all cases: Compound Concentration 10 µM
panel of 442 kinases [1] = target: T1, panel of 442 kinases (Homo sapiens, UniProt Q05655)
T1 construct: purchased KINOMEscan
Excerpt: (§1) We assessed the selectivity of members of this scaffold using the KINOMEscan methodology across a near comprehensive panel of 442 kinases [[18,27]].

panel of 442 kinases [2] = target: T2, panel of 442 kinases (Homo sapiens, UniProt Q13164)
T2 construct: purchased KINOMEscan
T2 sequence (Q13164 whole entry): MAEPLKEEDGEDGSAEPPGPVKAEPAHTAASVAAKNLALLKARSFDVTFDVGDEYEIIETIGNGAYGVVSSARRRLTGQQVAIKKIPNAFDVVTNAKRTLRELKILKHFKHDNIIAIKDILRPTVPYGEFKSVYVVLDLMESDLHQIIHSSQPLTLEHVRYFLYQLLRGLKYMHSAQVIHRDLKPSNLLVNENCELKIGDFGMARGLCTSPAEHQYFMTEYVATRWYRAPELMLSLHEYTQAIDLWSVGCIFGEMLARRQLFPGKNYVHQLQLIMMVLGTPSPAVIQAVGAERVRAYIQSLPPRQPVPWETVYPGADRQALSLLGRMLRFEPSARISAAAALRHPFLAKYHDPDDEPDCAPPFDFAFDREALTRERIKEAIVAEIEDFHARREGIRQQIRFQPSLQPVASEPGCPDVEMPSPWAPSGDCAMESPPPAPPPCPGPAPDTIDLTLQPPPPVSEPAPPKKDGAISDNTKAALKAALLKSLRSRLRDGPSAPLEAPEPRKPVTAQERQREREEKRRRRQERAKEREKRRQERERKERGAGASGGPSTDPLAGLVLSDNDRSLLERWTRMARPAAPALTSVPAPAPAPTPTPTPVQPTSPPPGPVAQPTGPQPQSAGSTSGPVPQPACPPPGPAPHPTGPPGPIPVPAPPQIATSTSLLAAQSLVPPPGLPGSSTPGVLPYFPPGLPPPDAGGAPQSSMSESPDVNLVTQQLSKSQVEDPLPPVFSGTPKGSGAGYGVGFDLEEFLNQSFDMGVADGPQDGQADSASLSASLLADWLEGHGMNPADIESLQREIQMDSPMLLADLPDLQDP
Excerpt: as §1

panel of 442 kinases [3] = target: T3, panel of 442 kinases (Homo sapiens, UniProt P51956)
T3 construct: purchased KINOMEscan
T3 sequence (P51956 1-506): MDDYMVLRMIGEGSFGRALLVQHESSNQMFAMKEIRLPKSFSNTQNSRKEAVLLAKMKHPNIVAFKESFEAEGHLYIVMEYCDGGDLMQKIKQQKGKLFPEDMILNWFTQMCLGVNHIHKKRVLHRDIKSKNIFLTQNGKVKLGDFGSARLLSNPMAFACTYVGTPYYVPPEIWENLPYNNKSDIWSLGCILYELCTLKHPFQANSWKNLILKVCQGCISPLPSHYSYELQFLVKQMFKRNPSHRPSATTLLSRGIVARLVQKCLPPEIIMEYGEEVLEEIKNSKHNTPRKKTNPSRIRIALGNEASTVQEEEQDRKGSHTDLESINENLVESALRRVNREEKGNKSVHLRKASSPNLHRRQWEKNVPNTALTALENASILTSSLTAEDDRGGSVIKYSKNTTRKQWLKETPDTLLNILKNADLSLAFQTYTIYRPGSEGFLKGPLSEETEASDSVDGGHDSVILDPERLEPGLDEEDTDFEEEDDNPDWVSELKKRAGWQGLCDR
Excerpt: as §1

T1 sequence (Q05655 whole entry): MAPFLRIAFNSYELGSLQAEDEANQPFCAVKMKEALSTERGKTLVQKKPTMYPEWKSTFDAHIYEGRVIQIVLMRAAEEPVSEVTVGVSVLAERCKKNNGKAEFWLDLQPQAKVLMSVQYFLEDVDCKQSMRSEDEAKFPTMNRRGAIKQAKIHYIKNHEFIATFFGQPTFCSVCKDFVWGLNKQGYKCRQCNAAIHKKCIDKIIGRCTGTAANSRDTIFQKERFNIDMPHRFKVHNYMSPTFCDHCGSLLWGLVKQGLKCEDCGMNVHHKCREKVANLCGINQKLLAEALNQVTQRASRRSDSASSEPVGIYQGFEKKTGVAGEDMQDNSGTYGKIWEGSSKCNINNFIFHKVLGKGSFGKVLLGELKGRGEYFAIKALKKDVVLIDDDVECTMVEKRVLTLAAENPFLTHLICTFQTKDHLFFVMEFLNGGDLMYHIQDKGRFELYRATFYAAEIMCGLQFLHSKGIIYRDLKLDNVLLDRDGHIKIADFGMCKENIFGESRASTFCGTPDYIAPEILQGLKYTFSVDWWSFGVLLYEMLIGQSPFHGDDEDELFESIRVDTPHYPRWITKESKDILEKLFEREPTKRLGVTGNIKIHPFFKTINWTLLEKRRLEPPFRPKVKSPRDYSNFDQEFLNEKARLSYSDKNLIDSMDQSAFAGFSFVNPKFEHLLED

Compound	KINOMEscan: PRKCD (panel of 442 kinases [1])	KINOMEscan: ERK5 (panel of 442 kinases [2])	KINOMEscan: NEK3 (panel of 442 kinases [3])
COc1cc(C(=O)N2CCC(N3CCN(C)CC3)CC2)ccc1Nc1ncc2c(n1)N1CCc3cccc(c31)C(=O)N2C [Compound 24]	67		
CCOc1cc(C(=O)N2CCC(N3CCN(C)CC3)CC2)ccc1Nc1ncc2c(n1)N(C1CCCC1)c1ccccc1C(=O)N2C [Compound 26]	100	0.1	83
COc1cc(C(=O)N2CCC(N3CCN(C)CC3)CC2)ccc1Nc1ncc2c(n1)N(C1CCCC1)c1ccccc1C(=O)N2C [Compound 25, 11-cyclopentyl-2-((2-methoxy-4-(4-(4-methylpiperazin-1-yl)piperidine-1-carbonyl)phenyl)amino)-5-methyl-5H-benzo[e]pyrimido[5,4-b][1,4]diazepin-6(11H)-one]	100	0.05	100
COc1cc(C(=O)N2CCC(N3CCN(C)CC3)CC2)ccc1Nc1ncc2c(n1)N(C)c1ccccc1C(=O)N2C [15 (LRRK2-IN-1)]	75	0.05	100
